Biological target: human APJ receptor (Homo sapiens (Human), UniProt P35414)
Assay: Intracellular cAMP accumulation assay (APJ hcAMP, HTRF)
Format: cell-based
Details: human APJ, intracellular cAMP accumulation; read-out: Human APJ cAMP EC50 Potency range
Method: Intracellular cAMP Accumulation Assay
HEK293 cells stably expressing human APJ receptor were used to assess the activity of compounds. Cultured cells were detached and resuspended in the cAMP Homogeneous Time-Resolved Fluorescence (HTRF) assay buffer (Cisbio cat; #62AM4PEJ). The assay was performed in 384-well assay plates (Perkin-Elmer; cat #6008289) according to assay protocol provided by the manufacturer. Serial dilutions of a compound together with assay buffer containing […] and 2 μM forskolin were added to each well containing 5,000 cells and incubated for 30 minutes at room temperature. Subsequently, cAMP D2 reagent was added in the lysis buffer followed by the EuK antibody (Cisbio; cat #62AM4PEJ) and incubated for 60 min. The fluorescence emission ratio was measured using fluorometer. The intracellular cAMP concentrations (compound-stimulated inhibition of forskolin-mediated cAMP production) were calculated by extrapolation from a standard curve using known cAMP concentrations. The EC50 values were obtained by fitting the data to a sigmoidal concentration-response curve with variable slope.
The EC50 value of each compound is presented at the end of the example description.
The biological activity of the exemplified compounds of this invention determined by the assay described above is shown at the end of each example.

human APJ receptor, sequence (P35414 whole entry): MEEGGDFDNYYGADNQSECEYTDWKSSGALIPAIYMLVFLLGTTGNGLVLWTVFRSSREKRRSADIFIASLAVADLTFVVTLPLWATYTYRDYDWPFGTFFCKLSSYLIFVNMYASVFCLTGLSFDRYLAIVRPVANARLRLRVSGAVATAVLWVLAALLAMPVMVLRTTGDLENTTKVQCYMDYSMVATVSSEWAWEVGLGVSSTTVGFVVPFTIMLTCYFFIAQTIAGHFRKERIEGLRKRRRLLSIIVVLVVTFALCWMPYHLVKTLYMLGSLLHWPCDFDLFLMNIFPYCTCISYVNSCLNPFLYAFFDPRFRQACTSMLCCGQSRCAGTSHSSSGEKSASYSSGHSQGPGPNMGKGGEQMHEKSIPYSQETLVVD

SMILES	EC50 [nM]
COc1cccc(OC)c1-n1c(CCC(C)C)nc(=O)c(S(=O)(=O)c2ccccc2-c2ccccc2)c1O [Example 22, 1-(2,6-dimethoxyphenyl)-6-hydroxy-2-(3-methylbutyl)-5-(2-phenylbenzenesulfonyl)-1,4-dihydropyrimidin-4-one]	10 to 100
COc1cccc(OC)c1-n1c(CCC(C)C)nc(=O)c(S(=O)(=O)c2cccc(-c3ccc(F)nc3)c2)c1O [Example 23, 1-(2,6-dimethoxyphenyl)-5-[3-(6-fluoropyridin-3-yl)benzenesulfonyl]-6-hydroxy-2-(3-methylbutyl)-1,4-dihydropyrimidin-4-one]	0.01 to 10
COc1cccc(OC)c1-n1c(CCC(C)C)nc(=O)c(S(=O)(=O)c2ccccc2-c2ccc(F)nc2)c1O [Example 24, 1-(2,6-dimethoxyphenyl)-5-[2-(6-fluoropyridin-3-yl)benzenesulfonyl]-6-hydroxy-2-(3-methylbutyl)-1,4-dihydropyrimidin-4-one]	10 to 100
COc1cccc(OC)c1-n1c(CCC(C)C)nc(=O)c(S(=O)(=O)c2ccccc2-c2cn(C)nc2C(F)(F)F)c1O [Example 25, 1-(2,6-dimethoxyphenyl)-6-hydroxy-5-{2-[1-methyl-3-(trifluoromethyl)-1H-pyrazol-4-yl]benzenesulfonyl}-2-(3-methylbutyl)-1,4-dihydropyrimidin-4-one]	100 to 300
CCCCc1nc(=O)c(S(=O)(=O)c2ccc(-c3ccc(F)cc3C)cc2)c(O)n1-c1c(OC)cccc1OC [Example 26, 2-butyl-1-(2,6-dimethoxyphenyl)-5-[4-(4-fluoro-2-methylphenyl)benzenesulfonyl]-6-hydroxy-1,4-dihydropyrimidin-4-one]	0.01 to 10
CCCCc1nc(=O)c(S(=O)(=O)c2ccc(-c3ccnc(C)c3)cc2)c(O)n1-c1c(OC)cccc1OC [Example 27, 2-butyl-1-(2,6-dimethoxyphenyl)-6-hydroxy-5-[4-(2-methylpyridin-4-yl)benzenesulfonyl]-1,4-dihydropyrimidin-4-one]	0.01 to 10
CCCCc1nc(=O)c(S(=O)(=O)c2ccc(-c3ccc(N4CCOCC4)nc3)cc2)c(O)n1-c1c(OC)cccc1OC [Example 28, 2-butyl-1-(2,6-dimethoxyphenyl)-6-hydroxy-5-{4-[6-(morpholin-4-yl)pyridin-3-yl]benzenesulfonyl}-1,4-dihydropyrimidin-4-one]	0.01 to 10
CCCCc1nc(=O)c(S(=O)(=O)c2ccc(-c3ccccc3OC3CC3)cc2)c(O)n1-c1c(OC)cccc1OC [Example 29]	0.01 to 10
CCCCc1nc(=O)c(S(=O)(=O)c2ccc(-c3cccnc3OC)cc2)c(O)n1-c1c(OC)cccc1OC [Example 30, 2-butyl-1-(2,6-dimethoxyphenyl)-6-hydroxy-5-[4-(2-methoxypyridin-3-yl)benzenesulfonyl]-1,4-dihydropyrimidin-4-one]	0.01 to 10
CCCCc1nc(=O)c(S(=O)(=O)c2ccc(-c3ccc(C(C)(C)O)cc3)cc2)c(O)n1-c1c(OC)cccc1OC [Example 31, 2-butyl-1-(2,6-dimethoxyphenyl)-6-hydroxy-5-{4-[4-(2-hydroxypropan-2-yl)phenyl]benzene-sulfonyl}-1,4-dihydropyrimidin-4-one]	0.01 to 10
COc1cccc(OC)c1-n1c(COC(C)C)nc(=O)c(S(=O)(=O)c2ccc(-c3ccc(F)nc3)cc2)c1O [Example 32, 1-(2,6-dimethoxyphenyl)-5-[4-(6-fluoropyridin-3-yl)benzenesulfonyl]-6-hydroxy-2-[(propan-2-yloxy)methyl]-1,4-dihydropyrimidin-4-one]	0.01 to 10
COc1cccc(OC)c1-n1c(COC(C)C)nc(=O)c(S(=O)(=O)c2ccc(-c3ccccc3)cc2)c1O [Example 33, 1-(2,6-dimethoxyphenyl)-6-hydroxy-5-(4-phenylbenzenesulfonyl)-2-[(propan-2-yloxy)methyl]-1,4-dihydropyrimidin-4-one]	0.01 to 10
CCCCc1nc(=O)c(S(=O)(=O)c2ccc(-c3ccncc3F)cc2)c(O)n1-c1c(OC)cccc1OC [Example 34, 2-butyl-1-(2,6-dimethoxyphenyl)-5-[4-(3-fluoropyridin-4-yl)benzenesulfonyl]-6-hydroxy-1,4-dihydropyrimidin-4-one]	0.01 to 10
CCCCc1nc(=O)c(S(=O)(=O)c2ccc(-c3cc(F)ccc3F)cc2)c(O)n1-c1c(OC)cccc1OC [Example 35, 2-butyl-5-[4-(2,5-difluorophenyl)benzenesulfonyl]-1-(2,6-dimethoxyphenyl)-6-hydroxy-1,4-dihydropyrimidin-4-one]	0.01 to 10
CCCCc1nc(=O)c(S(=O)(=O)c2ccc(-c3ccc(Cl)c(F)c3)cc2)c(O)n1-c1c(OC)cccc1OC [Example 36, 2-butyl-5-[4-(4-chloro-3-fluorophenyl)benzene-sulfonyl]-1-(2,6-dimethoxyphenyl)-6-hydroxy-1,4-dihydropyrimidin-4-one]	0.01 to 10
CCCCc1nc(=O)c(S(=O)(=O)c2ccc(-c3cnc(F)c(Cl)c3)cc2)c(O)n1-c1c(OC)cccc1OC [Example 37, 2-butyl-5-[4-(5-chloro-6-fluoropyridin-3-yl)benzenesulfonyl]-1-(2,6-dimethoxyphenyl)-6-hydroxy-1,4-dihydropyrimidin-4-one]	0.01 to 10
CCCCc1nc(=O)c(S(=O)(=O)c2ccc(-c3ccc(CN(C)C)cc3)cc2)c(O)n1-c1c(OC)cccc1OC [Example 38, 2-butyl-1-(2,6-dimethoxyphenyl)-5-(4-{4-[(dimethyla,o)methyl]phenyl}benzenesulfonyl)-6-hydroxy-1,4-dihydropyrimidin-4-one]	0.01 to 10
CCCCc1nc(=O)c(S(=O)(=O)c2ccc(-c3ccc(C(=O)NC4CC4)cc3)cc2)c(O)n1-c1c(OC)cccc1OC [Example 39, 4-(4-{[2-butyl-1-(2,6-dimethoxyphenyl)-6-hydroxy-4-oxo-1,4-dihydropyrimidin-5-yl]sulfonyl}phenyl)-N-cyclopropylbenzamide]	0.01 to 10
CCCCc1nc(=O)c(S(=O)(=O)c2ccc(-c3ccncc3C)cc2)c(O)n1-c1c(OC)cccc1OC [Example 40, 2-butyl-1-(2,6-dimethoxyphenyl)-6-hydroxy-5-[4-(3-methylpyridin-4-yl)benzenesulfonyl]-1,4-dihydropyrimidin-4-one]	0.01 to 10
CCCCc1nc(=O)c(S(=O)(=O)c2ccc(-c3ccc(C4CC4)nc3)cc2)c(O)n1-c1c(OC)cccc1OC [Example 41, 2-butyl-5-[4-(6-cyclopropylpyridin-3-yl)benzenesulfonyl]-1-(2,6-dimethoxyphenyl)-6-hydroxy-1,4-dihydropyrimidin-4-one]	0.01 to 10
CCCCc1nc(=O)c(S(=O)(=O)c2ccc(-c3cccc(F)n3)cc2)c(O)n1-c1c(OC)cccc1OC [Example 42, 2-butyl-1-(2,6-dimethoxyphenyl)-5-[4-(6-fluoropyridin-2-yl)benzenesulfonyl]-6-hydroxy-1,4-dihydropyrimidin-4-one]	0.01 to 10
CCCCc1nc(=O)c(S(=O)(=O)c2ccc(-c3ccnc(OC)c3)cc2)c(O)n1-c1c(OC)cccc1OC [Example 43, 2-butyl-1-(2,6-dimethoxyphenyl)-6-hydroxy-5-[4-(2-methoxypyridin-4-yl)benzenesulfonyl]-1,4-dihydropyrimidin-4-one]	0.01 to 10
CCCCc1nc(=O)c(S(=O)(=O)c2ccc(-c3ccc(C(N)=O)cc3)cc2)c(O)n1-c1c(OC)cccc1OC [Example 44, 4-(4-{[2-butyl-1-(2,6-dimethoxyphenyl)-6-hydroxy-4-oxo-1,4-dihydropyrimidin-5-yl]sulfonyl}phenyl) benzamide]	0.01 to 10

— US10508104B2, “6-hydroxy-5-(phenyl/heteroarylsulfonyl)pyrimidin-4(1H)-one as APJ agonists” (Bristol-Myers Squibb Company, priority 2016, dated 2019)
